The results in this text go back to patent publication US9132118B2, “Taxane analogs for the treatment of brain cancer” (Tapestry Pharmaceuticals, Inc., priority 2007, dated 2015).

Data set [1] relates to bovine microtubule protein (tubulin plus microtubule associated proteins). The data set can be described thus: In vitro ED50 MT polymerization study (DAPI fluorescence tubulin assay). The format is biochemical. The conditions noted are these: for ED50 Compound/ED50 Paclitaxel: ratio of tubulin polymerization ED50 values; for EC50: tubulin polymerization, 37° C. 30 minutes, percent of maximum assembly at 25 μM paclitaxel. On the procedure: In this tubulin binding assay, microtubule protein (MTP) is used as a substrate. The assay contains bovine tubulin plus microtubule associated proteins (MAP). MTP is polymerized into microtubules in the presence of DAPI (4′,6′-diamidino-2-phenylindole), a fluorescent compound. DAPI binds to tubulin; when microtubules are formed and there is an enhancement of fluorescence. The microtubule formation is measured as a function of time, using a fluorescence plate reader. […] The method used is based on the procedure published by Donna M. Barron, et al, “Fluorescence-based high-throughput assay for antimicrotuble drugs” Analytical Biochemistry, 315: 49-56, 2003, which is incorporated by reference in its entirety. The excitation wavelength, in that assay, was set at 370 nm and the emission wavelength was set at 450 nm for the DAPI experiments.
A Bio-Tek FL 600 microplate Fluorescence Reader was used to measure the relative level of fluorescence in the DAPI assay.
Assays were conducted in 96-well plates. […] The final DMSO concentration was 4%. The plates were incubated at 37° C. for 30 minutes and read in a fluorescence plate reader using an excitation wavelength of 360 nm and an emission wavelength of 460 nm. Fluorescence values were corrected for the sample without compound. […] Experiments were done twice in triplicate. Results were subsequently combined and fit to a non-linear regression program.

Data set [2] concerns human U251 (glioblastoma) CNS tumor cells. An excerpt: Tumor Model: Each animal was implanted with one million U251 human CNS tumor cells from an in vitro cell line by ic injection with a 25 gauge needle. The day of tumor implantation (May 24, 2006) was designated as day 0. A sufficient number of mice were implanted so that animals with body weights in a range as narrow as possible were selected for the trial on the day of treatment initiation (day 1 after tumor implantation). Animals were randomly assigned to the treatment groups and individually identified by earmark codes.
A portion of this solution was then diluted with the complete vehicle to achieve the lower dosing concentration of 1.2 mg/mL. […] Temozolomide (Temodar, Schering Corporation) was prepared on each day of injection in Klucel+tween 80 at a concentration of 4 mg/mL. Temozolomide was administered within 5 minutes of formulation on the basis of exact body weight using a volume of 0.2 mL/10 g of body weight.
Data Collection: Animal health surveillance was conducted and mortality data were collected daily. The animals were weighed twice weekly starting with the first day of treatment.
Study Duration: The study was terminated 100 days after tumor implantation. Any animal found moribund or whose body weight dropped below 14 g was euthanized prior to study termination.
Parameters Evaluated: Number of 100-day survivors, median day of death, and the increase in lifespan based on median day of death and expressed as a percentage (% ILS), median survival time and the % ILS based on median survival time.
Administration of the Ringer's solution was initiated when animal body weights dropped by greater than 10% and continued until the animal recovered, died, or was euthanized.

Where [3] appears, read: temozolomide 80 mg/kg/dose po q4d×3.

Take `CC(=O)O[C@@]12CO[C@@H]1C[C@H](O)[C@@]1(C)C(=O)[C@H](O)C3=C(C)[C@@H](OC(=O)[C@H](O)[C@@H](NC(=O)OC(C)(C)C)c4ccccc4)C[C@@](O)([C@@H](OC(=O)c4ccccc4)[C@H]21)C3(C)C` [Docetaxel, docetaxel]: in data set [1], the “ED50 Compound/ED50 Paclitaxel” value is listed as 1.07 and the EC50 (usually the concentration needed to bring the measured effect to its halfway point) stood at 3.18 ± 0.45 µM.

Take `C/C(=C\c1csc(C)n1)[C@@H]1C[C@@H]2O[C@]2(C)CCC[C@H](C)[C@H](O)[C@@H](C)C(=O)C(C)(C)[C@@H](O)CC(=O)O1` [Epothilone B]: in data set [1], the “ED50 Compound/ED50 Paclitaxel” value worked out at 1.11 and the EC50 is 3.31 ± 0.51 µM.

For `Cn1nnc2c(C(N)=O)ncn2c1=O` [Temozolomide, reference compound], the ILS – broadly, the gain in survival time of treated over control animals, in per cent – in data set [2] (Group 4: TMZ 80 mg/kg, po. QD1, 5, 9) amounted to 380%. Besides, in data set [2] (setting [3]), the “loss in mean body weight” value is given as 8% and the “treatment-related deaths (in words)” value is given as “without treatment-related deaths”.
